Values joined by “and” are separate entries in the source; they are usually repeats but may differ in a detail not shown here. Identical values can stand only once. Like-named read-outs stand apart in the source and are kept apart here.
Key:
[1] = molecular target: T1, purified recombinant human IPMK kinase domain (Homo sapiens, UniProt Q8NFU5); test: IPMK IC50 determination, Kinase-Glo assay; type: biochemical
T1 sequence (Q8NFU5 with tags, fused parts or gaps): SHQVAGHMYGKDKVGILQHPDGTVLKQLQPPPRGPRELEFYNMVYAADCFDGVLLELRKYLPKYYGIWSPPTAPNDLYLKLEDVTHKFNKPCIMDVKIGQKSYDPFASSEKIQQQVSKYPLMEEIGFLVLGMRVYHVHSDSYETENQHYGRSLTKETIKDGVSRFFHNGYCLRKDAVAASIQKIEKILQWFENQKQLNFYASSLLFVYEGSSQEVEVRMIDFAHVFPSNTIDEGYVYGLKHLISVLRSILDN
Text: (§1) These assay conditions were optimized with respect to reaction time, IPMK enzyme concentration, and IP3 concentration to determine the IC50 values for these ATP-competitive compounds.

[2] = Pharmacokinetic studies in mice; type: in vivo, male CD1 mice; settings: IV, 3 mg/kg; for AUC(0-t) / Cmax / clearance / half-life / Vd: male, CD1, mouse, plasma; for Vd: read-out: Vss
Method: All the procedures related to animal handling, care, and treatment in this study were performed according to guidelines approved by the Institutional Animal Care and Use Committee (IACUC) of Pharmaron (PK-R-06012023 and PK-M-07182023), following the guidance of the Association for Assessment and Accreditation of Laboratory Animal Care (AAALAC). A group of 3 male CD1 mice (2 for exploratory PK) were dosed intravenously (IV) or intraperitoneally (IP) with a solution formulation of the tested compounds in 10% NMP, 5% Solutol in normal saline (v/v/v, 10:5:85). From each mouse, blood samples ([…]) were collected from the orbital vein such that samples were obtained at 0.083, 0.25, 0.5, 1, 2, 4, 8, and 24 h post dose. At each time point, blood samples were collected from three mice in labeled microcentrifuge tubes containing EDTA-K2 as an anticoagulant. Plasma samples were separated by centrifugation of whole blood and stored at −75 ± 15 °C until bioanalysis. All samples were processed for analysis by precipitation using acetonitrile (ACN) and analyzed with a fit-for-purpose LC/MS/MS method (the below quantifiable limit (BLOQ) was 5.0 ng/mL). Pharmacokinetic parameters were calculated by a noncompartmental analysis model using WinNonlin 8.3.

[3] = molecular target: T2, purified recombinant human IP6K2 kinase domain (Homo sapiens, UniProt Q9UHH9); test: IP6K2 IC50 determination, malachite green Pi release assay; type: biochemical; settings: for IP6K2/IPMK: Table S1, ratio of IC50 values; for IC50: supplementary csv
T2 sequence (Q9UHH9 1-426): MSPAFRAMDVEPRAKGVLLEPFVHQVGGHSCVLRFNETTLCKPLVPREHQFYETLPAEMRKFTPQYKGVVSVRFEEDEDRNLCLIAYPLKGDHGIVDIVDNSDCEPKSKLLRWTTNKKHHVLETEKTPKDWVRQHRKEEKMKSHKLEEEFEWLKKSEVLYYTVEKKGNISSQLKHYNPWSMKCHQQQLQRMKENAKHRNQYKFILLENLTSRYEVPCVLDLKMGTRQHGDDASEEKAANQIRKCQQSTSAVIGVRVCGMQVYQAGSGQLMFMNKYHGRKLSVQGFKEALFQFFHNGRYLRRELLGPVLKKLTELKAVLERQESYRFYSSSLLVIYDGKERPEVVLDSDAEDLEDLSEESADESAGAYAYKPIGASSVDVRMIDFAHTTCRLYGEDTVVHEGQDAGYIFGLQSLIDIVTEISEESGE
Method: IP6K2 IC50 values were determined using the purified recombinant human IP6K2 kinase domain expressed in a 384-well clear polystyrene plate (VWR 82051-264). This human IP6K2 kinase domain (100 nM) was used at 37 °C in 50 μL reaction mixtures containing 5.0 μM human Dipp1, 50 mM Tris (pH 6.9), 10 mM MgCl2, 0.02% Triton X-100, 25 μM InsP6, and 50 μM ATP for 30 min. Pi release was determined with a malachite green colorimetric assay. Reactions were quenched by the addition of 12.5 μL of phosphate detection reagent (MAK3071KT, Sigma-Aldrich). Pi release was quantified from the absorbance at 620 nm by using appropriate standards.

[4] = system: purified recombinant human IPMK kinase domain; test: IPMK IC50 determination, Kinase-Glo assay; type: biochemical; settings: compared to compound 1
Text: as §1

[5] = system: human U251-MG glioblastoma cells; test: CyQuant cell count / proliferation assay; type: cell-based; settings: 400 nM, 48 h, vs DMSO
Method: 1 Compound 1 inhibits human U251 glioblastoma cell growth and labeled inositol phosphate levels. (A) Schematic of inositol phosphate metabolism. (B) Chemical structure of compound 1, indicating moiety A (blue highlight), the core (gray highlight), and moiety B (red highlight), and the IC50 value as determined by the kinase-GLO assay. (C) CyQuant cell count assay of 10,000 human U251-MG glioblastoma cells seeded per well, treated for 48 h with DMSO vehicle or 400 nM compound 1 (n = 8, ***p = 0.0046, unpaired t test). (D) HPLC analysis of ^3H-inositol phosphates from U251-MG cells treated with 400 nM compound 1 (red bars) or DMSO (blue bars) and metabolically labeled with ^3H-inositol for 48 h, expressed as the percentage of the inositol peak from the HPLC for InsP3, InsP4, InsP5, and InsP6, as indicated, *p < 0.05 by unpaired t test Bonferroni corrected for multiple comparisons. (E) Same data as in (D) replotted with a nonzero y-axis to facilitate visualizing differences between DMSO vs. compound treatment for each indicated inositol phosphate species, *p < 0.05 by unpaired t test Bonferroni corrected for multiple comparisons.
Error represents the standard error from 3 independent assays. (B) CyQuant cellular proliferation assay of 10,000 human U251-MG glioblastoma cells seeded per well, treated for 48 h with DMSO vehicle or 10 μM 14 (n = 8, ****p adj < 0.0001 by one-way ANOVA, Dunnett’s corrected; *p < 0.05 by unpaired t test). (C) HPLC analysis of ^3H-inositol phosphates from U251-MG cells treated with 10 μM compound 14 (red bars) or DMSO (blue bars) and metabolically labeled with ^3H-inositol for 48 h, expressed as a percentage of all the peaks detectable from the HPLC, *p < 0.05, **p < 0.01, ***p < 0.001 by unpaired t test compared to DMSO-treated control for all remaining panels, n = 3. (D) Same as (C) but expressed as a percentage of the inositol HPLC peak, n = 3. (E) Same as C but expressed as a percentage of all the inositol phosphate peaks combined from the HPLC, n = 3.

[6] = system: inositol phosphate levels in U251-MG cells; test: 3H-inositol metabolic labeling and HPLC of inositol phosphates; type: cell-based, human; settings: 400 nM, 48 h, vs DMSO
Method: Human U251-MG glioblastoma cells (ECACC 09063001) were grown in DMEM supplemented with 10% FBS. The medium was changed to inositol-free DMEM, and cells were inositol-starved for 1–3 days. Cells were maintained in inositol-free DMEM medium, treated with the indicated inhibitor or DMSO for 1–2.5 h, and supplemented with 100 μCi ^3H-inositol (PerkinElmer) for 48 or 72 h, as indicated on each figure. Cells were then washed in PBS and lysed in 200 μL HCl (0.5 M), 250 μL of MeOH was added to each well of a 6-well plate (approximately 10^6 cells), followed by 125 μL of 2 M KCl. Lysates were scraped and sonicated on ice for three 1 min cycles. Inositol phosphate (IP) extracts were cleaned of lipids by adding 250 μL of CHCl3, vortexing and centrifuging samples for 2 min at 5000 rpm to separate upper aqueous and lower organic phases, upper phase contains soluble IPs. This extraction was repeated once. Samples were dried in a SpeedVac, resuspended in 10 mM ammonium phosphate (pH= 3.5), and filtered. HPLC separation and detection of the inositol species on the upper phase used a Partisphere SAX 4.6 mm × 250 mm column, eluted with 10 mM (buffer A) to 1.3 M (buffer B) ammonium phosphate (pH = 3.8) and online flow scintillation analyzer (FSA, PerkinElmer). Elution of [^32P]-labeled IP4, IP5, and IP6 standards confirmed the identity of each peak off the HPLC. Quantification represents three biologically independent metabolic labeling samples with error representing the standard deviation of the mean.

[7] = Kinase-Glo assay, 12.5 μM Ins(1,4,5)P3, 10 μM ATP, read-out: IC50 toward recombinant human IPMK
[8] = supplementary csv, read-out: IPMK IC50

Compound | IC50 [1, 7] | IC50 [1, 8] [µM] | AUC(0-t) [2] [µM·h] | Cmax [2] [µM] | clearance [2] [mL/min/kg] | half-life [2] [h] | Vd [2] [L/kg] | IP6K2/IPMK [3] | IC50 [3] [µM] | decrease of inhibitory activity toward IPMK compared to 1 [4] [fold] | cell number, CyQuant DNA content assay [5] | accumulation of InsP4 [6] | accumulation of InsP5 [6] | accumulation of InsP6 [6] | Vss (L/kg) [2]
O=C(Nc1cccc(-c2onc3ccc(-c4nnn[nH]4)cc23)c1)C1CC1 [Compound 11, N-(3-(5-(1H-Tetrazol-5-yl)benzo[c]isoxazol-3-yl)phenyl)cyclopropanecarboxamide] | 0.03 ± 0.0017 µM | 0.0302 ± 0.0017 | 19.4 | 66.6 | 7.52 | 1.09 | 0.21 | 3.5 | 0.107 ± 0.0644 |  |  |  |  |  | 
c1ccc(-c2onc3ccc(-c4nnn[nH]4)cc23)cc1 [Compound 6, 3-Phenyl-5-(1H-tetrazol-5-yl)benzo[c]isoxazole] |  | 0.036 ± 0.0055 |  |  |  |  |  | 3.5 | 0.125 ± 0.0662 |  |  |  |  |  | 
Cc1cc(C)cc(-c2onc3ccc([C@H]4C[C@@H]4C(=O)O)cc23)c1 (racemic) [Compound 2, (±)-trans-2-(3-(3,5-Dimethylphenyl)benzo[c]isoxazol-5-yl)cyclopropane-1-carboxylic acid] |  | 0.166 ± 0.0196 |  |  |  |  |  | 1.6 | 0.265 ± 0.02 | 6 |  |  |  |  | 
FC(F)(F)c1ccc(-c2onc3ccc(-c4nnn[nH]4)cc23)cc1 [Compound 7, 5-(1H-Tetrazol-5-yl)-3-(4-(trifluoromethyl)phenyl)benzo[c]isoxazole] | 0.019 ± 0.0014 µM | 0.0186 ± 0.0014 |  |  |  |  |  | 7.8 | 0.146 ± 0.0971 |  |  |  |  |  | 
c1cc(OC2CCNCC2)cc(-c2onc3ccc(-c4nnn[nH]4)cc23)c1 [Compound 12, 3-(3-(Piperidin-4-yloxy)phenyl)-5-(1H-tetrazol-5-yl)benzo[c]isoxazole] | 0.031 ± 0.004 µM | 0.0313 ± 0.004 | 10.8 | 44 | 11.8 | 1.29 | 0.23 | 4.9 | 0.153 ± 0.0798 |  |  |  |  |  | 
FC(F)(F)Oc1ccc(-c2onc3ccc(-c4nnn[nH]4)cc23)cc1 [Compound 8, 5-(1H-Tetrazol-5-yl)-3-(4-(trifluoromethoxy)phenyl)benzo[c]isoxazole] | 0.018 ± 0.0016 µM | 0.0183 ± 0.0016 | 46.9 | 33 | 3.15 | 0.92 | 0.26 | 5.0 | 0.0917 ± 0.0509 |  |  |  |  |  | 
Cc1cc(C)cc(-c2onc3ccc(C(=O)O)cc23)c1 [Compound 3] |  | 0.215 ± 0.0375 |  |  |  |  |  |  |  | 8 |  |  |  |  | 
Cc1cc(C)cc(-c2onc3ccc(/C=C/C(=O)O)cc23)c1 [Compound 1, (E)-3-(3-(3,5-Dimethylphenyl)benzo[c]isoxazol-5-yl)acrylic Acid] | 0.026 µM and 0.0262 µM |  |  |  |  |  |  | 9.5 | 0.248 ± 0.119 |  | significant decrease in cell number | significantly decreased | significantly decreased | significantly decreased | 
Clc1cnc(Oc2cccc(-c3onc4ccc(-c5nnn[nH]5)cc34)c2)c(Cl)c1 [Compound 13, 3-(3-((3,5-Dichloropyridin-2-yl)oxy)phenyl)-5-(1H-tetrazol-5-yl)benzo[c]isoxazole] |  | 0.0721 ± 0.0052 | 7.7 | 50.5 | 15.5 | 2.01 | 0.27 | 1.8 | 0.129 ± 0.0441 |  |  |  |  |  | increased
O=C(Nc1ccc(-c2onc3ccc(-c4nnn[nH]4)cc23)cc1)C1CC1 [Compound 10, N-(4-(5-(1H-Tetrazol-5-yl)benzo[c]isoxazol-3-yl)phenyl)cyclopropanecarboxamide] | 0.058 ± 0.0034 µM | 0.0582 ± 0.0034 |  |  |  |  |  | 5.1 | 0.297 ± 0.141 |  |  |  |  |  | 
c1ccc(Oc2ccc(-c3onc4ccc(-c5nnn[nH]5)cc34)cc2)cc1 [Compound 9, 3-(4-Phenoxyphenyl)-5-(1H-tetrazol-5-yl)benzo[c]isoxazole] |  | 0.185 ± 0.0155 |  |  |  |  |  | 5.1 | 0.942 ± 0.348 |  |  |  |  |  | 

Reference: paper PMC12362615, “Design, Synthesis, and Cellular Characterization of a New Class of IPMK Kinase Inhibitors” (Journal of Medicinal Chemistry, 2025)
